Tests used:
Tetranychus urticae = Tetranychus urticae - spray test, OP-resistant; format: in vivo; details: bean leaf discs, after 6 days
How it was run: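 Mortality (%) read on day 6 after spraying Phaseolus vulgaris leaf discs carrying all mite stages with formulations at the desired concentration. Formulation: active ingredient in acetone plus dimethylformamide, made up with emulsifier-containing water (1000 ppm alkylaryl polyglycol ether).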

Ctenocephalides felis [1] = experiment: Ctenocephalides felis - in vitro contact tests with adult cat fleas; format: in vivo; details: application rate 5 μg/cm2 (=500 g/ha); after 48 h; fleas dead or moribund
Protocol: For the coating of the test tubes, 9 mg of active ingredient are first dissolved in 1 ml of acetone p.a. and then diluted to the desired concentration with acetone p.a. 250 μl of the solution are distributed homogeneously on the inner walls and base of a 25 ml test tube by turning and rocking on an orbital shaker (rocking rotation at 30 rpm for 2 h). With 900 ppm active ingredient solution and internal surface area 44.7 cm^2, given homogeneous distribution, an area-based dose of 5 μg/cm^2 is achieved.
After the solvent has evaporated off, the tubes are populated with 5-10 adult cat fleas (Ctenocephalides felis), sealed with a perforated plastic lid and incubated in a horizontal position at room temperature and ambient humidity. After 48 h, efficacy is determined. To this end, the test tubes are stood upright and the fleas are knocked to the base of the tube. Fleas which remain motionless at the base or move in an uncoordinated manner are considered to be dead or moribund.
100% efficacy means that all the fleas were dead or moribund. 0% efficacy means that no fleas were harmed.

[2] = logP determination by HPLC on a reversed-phase column (C18); format: physicochemical; details: for logP^a): HPLC-MS method a); for log P: HPLC-MS; for logP: HPLC, C18 reversed phase, acetonitrile/water with formic acid, EEC Directive 79/831 Annex V.A8
Phaedon cochleariae = Phaedon cochleariae - spray test; format: in vivo; details: larvae on Chinese cabbage leaf discs, after 7 days
How it was run: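 Mortality of mustard beetle larvae was scored as % at day 7 on Brassica pekinensis leaf discs. Discs had been treated by spraying at the desired concentration, using an acetone/dimethylformamide solution diluted in water with 1000 ppm alkylaryl polyglycol ether, and dried before larvae were added.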

Ctenocephalides felis [3] = experiment: Ctenocephalides felis - oral test; format: in vivo; details: application rate 100 ppm in citrated cattle blood; after 2 days
How it was run: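 Roughly 20 unfed adult C. felis imbibe compound-dosed citrated cattle blood (DMSO formulation) across parafilm from a cylinder above their gauze chamber; percentage mortality recorded at day 2.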

Spodoptera frugiperda = Spodoptera frugiperda - spray test; format: in vivo; details: caterpillars on maize leaf discs, after 7 days
How it was run: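 Percent mortality of Spodoptera frugiperda caterpillars scored 7 days after placing them on dried maize leaf discs sprayed at the desired concentration. Spray formulation: compound dissolved in acetone/dimethylformamide, made up with water containing 1000 ppm emulsifier.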

Musca domestica = Musca domestica test; format: in vivo; details: application rate 100 ppm; adult houseflies; after 2 days
Protocol: Solvent: dimethyl sulphoxide
To produce an appropriate active ingredient formulation, 10 mg of active ingredient are mixed with 0.5 ml of dimethyl sulphoxide, and the concentrate is diluted with water to the desired concentration.
Vessels containing a sponge treated with sugar solution and the active ingredient formulation of the desired concentration are populated with 10 adult houseflies (Musca domestica).
After 2 days, the kill in % is determined. 100% means that all of the flies have been killed; 0% means that none of the flies have been killed.

Boophilus microplus = Boophilus microplus - injection test; format: in vivo; details: application rate 20 μg/animal; injection into engorged adult female ticks; after 7 days
How it was run: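 Five engorged adult female cattle ticks each received a 1 μl abdominal injection of compound solution in dimethyl sulphoxide. Fertile egg laying was assessed at 7 days, with doubtful eggs incubated about 42 days until hatch. 0% efficacy means all eggs fertile.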

Lucilia cuprina = Lucilia cuprina test; format: in vivo; details: application rate 100 ppm; L1 larvae; after 2 days
How it was run: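 Mortality (%) of first-instar blowfly larvae, about 20 per vessel, recorded 2 days after exposure to compound-treated minced horsemeat. Compound dissolved in dimethyl sulphoxide, then water-diluted to the desired concentration.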

Myzus persicae = Myzus persicae - spray test; format: in vivo; details: Chinese cabbage leaf discs, after 6 days
Protocol: Solvent: 78 parts by weight of acetone and 1.5 parts by weight of dimethylformamide
Emulsifier: alkylaryl polyglycol ether
To produce an appropriate active ingredient formulation, 1 part by weight of active ingredient is dissolved using the specified parts by weight of solvent and made up with water containing an emulsifier concentration of 1000 ppm until the desired concentration is attained. To produce further test concentrations, the preparation is diluted with emulsifier-containing water.
Discs of Chinese cabbage leaves (Brassica pekinensis) infested by all stages of the green peach aphid (Myzus persicae) are sprayed with an active ingredient formulation of the desired concentration.
After 6 days, efficacy in % is determined. 100% means that all the aphids have been killed; 0% means that none of the aphids have been killed.

[4] = reversed-phase column (C18), Table I-T3

Row | Structure (SMILES) | efficacy (Tetranychus urticae; application rate 100 g/ha) | efficacy (Ctenocephalides felis [1]) | logP^a) ([2]; reversed-phase column (C18)) | log P [2, 4] | efficacy (Phaedon cochleariae; application rate 100 g/ha) | efficacy (kill) (Ctenocephalides felis [3]) | efficacy (Spodoptera frugiperda; application rate 100 g/ha) | efficacy (kill) (Musca domestica) | efficacy (laying of fertile eggs) (Boophilus microplus) | efficacy (kill) (Lucilia cuprina) | logP^a) [2] | logP^a) [2, 4] | efficacy (Myzus persicae; application rate 100 g/ha) | efficacy (Phaedon cochleariae; application rate 500 g/ha) | efficacy (Spodoptera frugiperda; application rate 500 g/ha) | efficacy (Tetranychus urticae; application rate 500 g/ha) | efficacy (Myzus persicae; application rate 500 g/ha) | logP [2]
1 | CCNC(=O)c1cc(-c2cnn(-c3c(Cl)cc(C(F)(F)F)cc3Cl)c2)cnc1C [I-T3-147] | 90% | 100% | 4.0 | 4.0 | – | – | – | – | – | – | – | – | – | – | – | – | – | –
2 | O=C(NC1CC1)c1cc(-c2cnn(-c3c(Cl)cc(C(F)(C(F)(F)F)C(F)(F)F)cc3Cl)c2)cnc1NC1CC1 [I-T3-137] | 90% | 100% | 3.4 | 3.4 | 100% | 100% | 100% | 100% | 100% | 80% | – | – | – | – | – | – | – | –
3 | CNc1ncc(-c2cnn(-c3c(Cl)cc(C(F)(C(F)(F)F)C(F)(F)F)cc3Cl)c2)cc1C(=O)NC1CC1 [I-T3-136] | – | 100% | 3.5 | 3.5 | 100% | 100% | 100% | 100% | 100% | 100% | – | – | – | – | – | – | – | –
4 | Cc1cc(C(F)(C(F)(F)F)C(F)(F)F)cc(C)c1-n1cc(-c2cc(C(=O)NC3CC3)ccc2F)cn1 [I-T3-13] | – | 100% | – | – | – | 80% | – | – | 100% | – | 4.5 | 4.5 | – | – | – | – | – | –
5 | N#Cc1cc(C(F)(F)F)cc(Cl)c1-n1cc(-c2ccc(Cl)c(C(=O)NC3CC3)c2)cn1 [I-T3-174] | 100% | – | – | 3.1 | 100% | – | 100% | – | – | – | – | – | 100% | – | – | – | – | –
6 | CC[S+]([O-])c1cc(C(F)(F)F)cc(Cl)c1-n1cc(-c2ccc(Cl)c(C(=O)NC3CC3)c2)cn1 (centres unmarked) [I-T3-179] | 100% | – | – | 3.0 | 100% | – | – | – | – | – | – | – | 100% | – | – | – | – | –
7 | Cc1cc(C(F)(C(F)(F)F)C(F)(F)F)cc(C)c1-n1cc(-c2cccc(C(=O)NC3CC3)c2F)cn1 [I-T3-9] | – | 100% | – | – | – | 100% | – | – | 100% | 100% | 4.3 | 4.3 | – | 100% | 100% | 100% | – | –
8 | O=C(NC1CC1)c1cc(-c2cnn(-c3c(F)cc(C(F)(F)F)cc3Cl)c2)ccc1Cl [I-T3-186] | – | – | – | 3.6 | – | – | – | – | – | – | – | – | – | 100% | 100% | 100% | 90% | –
9 | Cc1cc(C(F)(C(F)(F)F)C(F)(F)F)cc(C)c1-n1ccc(-c2ccc(Cl)c(C(=O)NC3CC3)c2)c1 [I-T46-2] | – | 100% | – | – | 100% | 100% | 100% | – | 100% | 100% | – | – | – | – | – | – | – | 5.0
10 | CCSc1cc(C(F)(F)F)cc(Cl)c1-n1cc(-c2ccc(Cl)c(C(=O)NC3(C#N)CC3)c2)cn1 [I-T3-170] | 100% | – | – | 3.7 | 100% | – | 100% | – | – | – | – | – | 100% | – | – | – | – | –
11 | Cc1cc(C(F)(C(F)(F)F)C(F)(F)F)cc(C(F)(F)F)c1-n1cc(-c2ccc(Cl)c(C(=O)NCC(F)(F)F)c2)cn1 [I-T3-84] | 100% | 100% | – | – | 100% | 100% | 100% | 100% | 100% | 100% | 4.7 | 4.7 | – | – | – | – | – | –
12 | N#CC1(NC(=O)c2cc(-c3cnn(-c4c(F)cc(C(F)(F)F)cc4Cl)c3)ccc2Cl)CC1 [I-T3-187] | – | – | – | 3.3 | – | – | – | – | – | – | – | – | – | 100% | 100% | 100% | 100% | –
13 | N#CC1(NC(=O)c2cc(-c3cc(-c4c(Cl)cc(C(F)(C(F)(F)F)C(F)(F)F)cc4Cl)on3)ccc2Cl)CC1 [I-T23-2] | – | 100% | – | – | – | 100% | – | 100% | 100% | 100% | – | – | – | 100% | 100% | 100% | – | 4.8
14 | O=C(NC1CC1)c1cc(-c2cnn(-c3ccc(C(F)(C(F)(F)F)C(F)(F)F)cc3Cl)c2)ccc1Cl [I-T3-31] | – | 100% | – | – | – | 100% | – | 100% | 100% | 100% | 4.3 | 4.3 | – | 100% | 100% | 100% | – | –
15 | O=C(NC1CC1)c1cccc(-c2cnn(-c3ncc(C(F)(F)F)cc3Cl)c2)c1 [I-T3-122] | – | – | 3.0 | 3.0 | – | – | – | – | – | – | – | – | – | – | – | – | 100% | –
16 | Cc1cc(C(F)(C(F)(F)F)C(F)(F)F)cc(C)c1-n1cc(-c2cc(C(=O)NC3(C#N)CC3)c(Cl)cc2F)cn1 [I-T3-17] | – | 100% | – | – | – | 95% | – | – | 100% | 100% | 4.4 | 4.4 | – | 100% | 100% | – | – | –
17 | CCc1cc(C(F)(C(F)(F)F)C(F)(F)F)cc(C)c1-n1cc(-c2cncc(C(=O)NC3CC3)c2)cn1 [I-T3-77] | – | – | – | – | – | 100% | – | 100% | 100% | 100% | 3.4 | 3.4 | 100% | 100% | 100% | 100% | – | –
18 | COCCNc1ncc(-c2cnn(-c3c(Cl)cc(C(F)(C(F)(F)F)C(F)(F)F)cc3Cl)c2)cc1C(=O)NC1CC1 [I-T3-138] | 90% | 100% | 4.1 | 4.1 | 83% | – | 100% | – | – | – | – | – | – | – | – | – | – | –
19 | N#CC1(CNC(=O)c2cc(-c3cnn(-c4c(Cl)cc(C(F)(C(F)(F)F)C(F)(F)F)cc4C(F)(F)F)c3)ccc2Cl)CC1 [I-T3-199] | – | 100% | – | – | – | – | – | – | – | – | – | – | – | – | – | – | – | –
20 | Cc1cc(C(F)(C(F)(F)F)C(F)(F)F)cc(C)c1-c1cc(-c2ccc(Cl)c(C(=O)NCC(F)(F)F)c2)on1 [I-T22-3] | 90% | 100% | – | – | 100% | 100% | 100% | 100% | 100% | 100% | – | – | – | – | – | – | – | 5

Reference: patent US10150737B2, “Compounds for controlling arthropods” (priority 2013, dated 2018)
